{"source": "patent US20250304576A1", "about": "(Cancer Research Technology Limited, priority 2022, published 2025)", "biological_target": "T1, IKBKB (IKKβ) (Homo sapiens, UniProt O14920)", "T1 construct": "purchased Life Technologies (assay performed by the vendor)", "T1 sequence (O14920 1-756)": "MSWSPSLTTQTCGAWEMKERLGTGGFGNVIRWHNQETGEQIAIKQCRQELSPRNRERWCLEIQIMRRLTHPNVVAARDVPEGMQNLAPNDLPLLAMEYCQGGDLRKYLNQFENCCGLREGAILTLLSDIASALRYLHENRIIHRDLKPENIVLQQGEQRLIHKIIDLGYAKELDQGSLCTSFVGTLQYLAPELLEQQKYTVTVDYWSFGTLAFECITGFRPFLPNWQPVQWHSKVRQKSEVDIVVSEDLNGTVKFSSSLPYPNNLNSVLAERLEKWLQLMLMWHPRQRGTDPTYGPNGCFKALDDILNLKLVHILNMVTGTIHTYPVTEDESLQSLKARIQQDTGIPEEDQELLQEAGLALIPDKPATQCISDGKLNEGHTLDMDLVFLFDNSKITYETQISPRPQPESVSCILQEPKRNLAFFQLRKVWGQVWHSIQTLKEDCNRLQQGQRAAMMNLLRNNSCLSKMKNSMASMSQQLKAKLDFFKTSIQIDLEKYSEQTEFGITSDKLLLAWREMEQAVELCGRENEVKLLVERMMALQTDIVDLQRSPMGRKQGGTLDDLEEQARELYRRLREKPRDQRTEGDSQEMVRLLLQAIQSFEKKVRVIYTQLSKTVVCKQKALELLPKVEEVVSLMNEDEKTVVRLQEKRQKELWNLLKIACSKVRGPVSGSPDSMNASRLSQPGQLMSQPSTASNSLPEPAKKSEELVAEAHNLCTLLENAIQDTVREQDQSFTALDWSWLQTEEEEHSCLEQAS", "assay": "Z'-LYTE IKKβ assay (Life Technologies)", "format": "biochemical", "protocol": "IKKα and IKKβ inhibitory activity was determined using three different assays: a dissociation enhanced ligand fluorescent immunoassay (DELFIA) based on the protocol of HTScan™ IKKβ Kinase Assay (Cell Signaling Technology, USA); an Adapta IKKα assay (performed by Life Technologies); a Z′-LYTE™ IKKβ assay (performed by Life Technologies).\nThe reaction was performed in low volume NBS, black 384-well plates (Corning model 4514).\nThe test compounds were screened in 1% DMSO (final) in the well. For 10 point titrations, 3-fold serial dilutions were conducted from the starting concentration of 50 mM.\nThe 2× IKBKB (IKKβ)/Ser/Thr 05 mixture was prepared in 50 mM HEPES pH 7.5, 0.01% BRIJ-35, 10 mM MgCl2, 1 mM EGTA. The final 10 μL Kinase Reaction consisted of 0.62-4 ng IKBKB (IKKβ) and 2 μM Ser/Thr 05 in 50 mM HEPES pH 7.5, 0.01% BRIJ-35, 10 mM MgCl2, 1 mM EGTA.\n5 μL of 2× Kinase reaction was incubated with 2.5 μL of ATP solution diluted to a 4× working concentration in Kinase Buffer (50 mM HEPES pH 7.5, 0.01% BRIJ-35, 10 mM MgCl2, 1 mM EGTA) in the presence of […] of 100× test compound in 100% DMSO and 2.4 μL of Kinase buffer.\nThe resulting kinase reaction was allowed to incubate for 1 hour at room temperature before 5 μL of a 1:64 dilution of Development Reagent B was added and the resulting Development Reaction was incubated for another hour at room temperature. Then the plate was read on a fluorescence plate reader and the data analysed.\nA ratiometric method, which calculated the Emission Ratio of donor emission (i.e. coumarin) to acceptor emission (i.e. fluorescein) after excitation of the donor fluorophore at 400 nm, was used to quantitate reaction progress, as shown in the equation below.", "data": [{"smiles": "Nc1n[nH]c2ccc(-c3ccnc4[nH]c(C5CCOCC5)cc34)cc12", "note": "[Example 228, 5-(2-(tetrahydro-2H-pyran-4-yl)-1H-pyrrolo[2,3-b]pyridin-4-yl)-1H-indazol-3-amine]", "values": [{"measurement": "IC50", "value": 32, "unit": "nM"}]}, {"smiles": "Nc1n[nH]c2ccc(-c3ccnc4[nH]c(C5CCCCO5)cc34)cc12", "note": "(stereo not shown) [Example 229, 5-(2-(Tetrahydro-2H-pyran-2-yl)-1H-pyrrolo[2,3-b]pyridin-4-yl)-1H-indazol-3-amine]", "values": [{"measurement": "IC50", "value": 225, "unit": "nM"}]}, {"smiles": "Nc1n[nH]c2ccc(-c3ccnc4[nH]c(CC5CCOCC5)cc34)cc12", "note": "[Example 230, 5-(2-((tetrahydro-2H-pyran-4-yl)methyl)-1H-pyrrolo[2,3-b]pyridin-4-yl)-1H-indazol-3-amine]", "values": [{"measurement": "IC50", "value": 60, "unit": "nM"}]}, {"smiles": "Nc1n[nH]c2ccc(-c3ccnc4[nH]c(C(=O)N5CCCC5)cc34)cc12", "note": "[Example 234, (4-(3-Amino-1H-indazol-5-yl)-1H-pyrrolo[2,3-b]pyridin-2-yl)(pyrrolidin-1-yl)methanone]", "values": [{"measurement": "IC50", "value": 790, "unit": "nM"}]}, {"smiles": "Nc1n[nH]c2ccc(-c3ccnc4[nH]c(C(=O)NC5CCCCC5)cc34)cc12", "note": "[Example 236, 4-(3-Amino-1H-indazol-5-yl)-N-cyclohexyl-1H-pyrrolo[2,3-b]pyridine-2-carboxamide]", "values": [{"measurement": "IC50", "value": 20, "unit": "nM"}]}, {"smiles": "CN1CCN(C(=O)c2cc3c(-c4ccc5[nH]nc(N)c5c4)ccnc3[nH]2)CC1", "note": "[Example 243, (4-(3-Amino-1H-indazol-5-yl)-1H-pyrrolo[2,3-b]pyridin-2-yl)(4-methylpiperazin-1-yl)methanone]", "values": [{"measurement": "IC50", "value": 630, "unit": "nM"}]}, {"smiles": "CC(C)(C)NCc1cc2c(-c3ccc4[nH]nc(N)c4c3)ccnc2[nH]1", "note": "[Example 248, 5-(2-((tert-Butylamino)methyl)-1H-pyrrolo[2,3-b]pyridine-4-yl)-1H-indazol-3-amine]", "values": [{"measurement": "IC50", "value": 1430, "unit": "nM"}]}, {"smiles": "Nc1n[nH]c2ccc(-c3ccnc4[nH]c(C5CCCCN5)cc34)cc12", "note": "(stereo not shown) [Example 250, 5-(2-(Piperidin-2-yl)-1H-pyrrolo[2,3-b]pyridine-4-yl)-1H-indazol-3-amine]", "values": [{"measurement": "IC50", "value": 810, "unit": "nM"}]}, {"smiles": "Nc1n[nH]c2ccc(-c3ccnc4[nH]c(CNC5CCCCC5)cc34)cc12", "note": "[Example 251, 5-(2-((cyclohexylamino)methyl)-1H-pyrrolo[2,3-b]339yridine-4-yl)-1H-indazol-3-amine]", "values": [{"measurement": "IC50", "value": 405, "unit": "nM"}]}, {"smiles": "CN(C)CCCNCc1cc2c(-c3ccc4[nH]nc(N)c4c3)ccnc2[nH]1", "note": "[Example 258, N^1-((4-(3-amino-1H-indazol-5-yl)-1H-pyrrolo[2,3-b]pyridin-2-yl)methyl)-N^3,N^3-dimethylpropane-1,3-diamine]", "values": [{"measurement": "IC50", "value": 245, "unit": "nM"}]}, {"smiles": "CC(C)N(C)Cc1cc2c(-c3ccc4[nH]nc(N)c4c3)ccnc2[nH]1", "note": "[Example 259, 5-(2-((Isopropyl(methyl)amino)methyl)-1H-pyrrolo[2,3-b]pyridine-4-yl)-1H-indazol-3-amine]", "values": [{"measurement": "IC50", "value": 790, "unit": "nM"}]}, {"smiles": "Nc1n[nH]c2ccc(-c3ccnc4[nH]c(CN5CCCCC5)cc34)cc12", "note": "[Example 260, 5-(2-(Piperidin-1-ylmethyl)-1H-pyrrolo[2,3-b]pyridine-4-yl)-1H-indazol-3-amine]", "values": [{"measurement": "IC50", "value": 454, "unit": "nM"}]}, {"smiles": "Nc1n[nH]c2ccc(-c3ccnc4[nH]c(CN5CCC(F)(F)CC5)cc34)cc12", "note": "[Example 261, 5-(2-((4,4-Difluoropiperidin-1-yl)methyl)-1H-pyrrolo[2,3-b]pyridine-4-yl)-1H-indazol-3-amine]", "values": [{"measurement": "IC50", "value": 286, "unit": "nM"}]}, {"smiles": "Nc1n[nH]c2ccc(-c3ccnc4[nH]c(CN5CCOCC5)cc34)cc12", "note": "[Example 262, 5-(2-(Morpholinomethyl)-1H-pyrrolo[2,3-b]pyridine-4-yl)-1H-indazol-3-amine]", "values": [{"measurement": "IC50", "value": 269, "unit": "nM"}]}, {"smiles": "CN1CCN(Cc2cc3c(-c4ccc5[nH]nc(N)c5c4)ccnc3[nH]2)CC1", "note": "[Example 263, 5-(2-((4-Methylpiperazin-1-yl)methyl)-1H-pyrrolo[2,3-b]pyridine-4-yl)-1H-indazol-3-amine]", "values": [{"measurement": "IC50", "value": 300, "unit": "nM"}]}, {"smiles": "Nc1n[nH]c2ccc(-c3ccnc4[nH]c(CN5CCCCCC5)cc34)cc12", "note": "[Example 265, 5-(2-(Azepan-1-ylmethyl)-1H-pyrrolo[2,3-b]pyridine-4-yl)-1H-indazol-3-amine]", "values": [{"measurement": "IC50", "value": 350, "unit": "nM"}]}]}
